Source: patent publication US20080113038A1, “Composition For Promoting Osteogenesis And Increasing Bone Mineral Content” (priority 2004, published 2008)

Legend:
[1] = tested on: diaphysis and metaphysis tissues of rat femur; experiment: Calcium level in bone tissues in a bone tissue culture system; settings: for Change of calcium levels in bone tissues (in words) / Calcium level in bone tissues, diaphysis part / Calcium level in bone tissues, metaphysis part / Change of calcium levels in bone tissues compared to the control group (in words): 48 h culture, β-cryptoxanthin 10^−9 M; for Calcium level in bone tissues, diaphysis part / Calcium level in bone tissues, metaphysis part: mean ± SD, 5 rats; for Change of calcium level in bone tissues (in words): higher concentration of 10^−5 M; for Change of calcium levels in bone tissues compared to the control group (in words): both diaphysis and metaphysis
Experimental: Rats (Wistar male rats; 4 weeks old, body weight 85-90 g; purchased from Japan SLC Ltd., and fed with solid Oriental yeast (MF)) were sacrificed under mild ether anesthesia. Muscle tissues around femur were removed completely, divided into diaphysis (cortical bone) and metaphysis (cancellous bone) tissues of femur, and then the bone marrow cells were washed and removed in a cold 0.25 M sucrose solution. The bone tissue pieces were cultured in a Dulbecco's modified Eagle's culture medium (serum-free, containing 50 units/ml penicillin and 50 μg/ml spretomycin, supplemented with 45 mg/ml glucose), in an CO2 incubator aseptically for 48 hours at 37° C. […] Bone tissues were put into a culture dish (with a diameter of 35 mm, made of plastic) added with 2.0 ml of the above mentioned culture solution, and cultured. After being cultured, bone tissues were washed well in a cold 0.25 M sucrose solution, dried at 100° C. for 5 hours, and weighed. Dried bone tissues were put into a test tube (15 ml), to which 2.0 ml of concentrated nitric acid was added, and the resultant was heated and degraded at 100° C. for 16 hours. After degradation, solution amount was measured. A specific amount thereof was diluted with purified distilled water, and calcium was determined by colorimetry (kit for measuring calcium, Wako Pure Chemical Industries). Calcium levels in bone tissues are indicated as mg per 1 g of dried weight of cultured bone tissues. In the above experiment, bone tissues obtained from one rat were put in one culture dish, and 5 culture dishes were used for 5 rats. 5 dishes were used for each of the control, β-cryptoxanthin alone group, zinc alone group, and the β-cryptoxanthin and zinc-combined group. […] A critical value of less than 5% was determined as having a significant difference.
In order to investigate the effect on calcium levels in bone tissues when β-cryptoxanthin and zinc, or genistein and menaquinone-7 are supplied in the bone tissue culture system, femur diaphysis and metaphysis tissues were cultured for 48 hours in a culture solution, in the same manner as in Example 1, and the calcium level in bone tissues was measured, compared and evaluated.

[2] = tested on: diaphysis and metaphysis tissues of rat femur; experiment: DNA level in bone tissues in a bone tissue culture system; type: cell-based; settings: 48 h culture, β-cryptoxanthin 10^−9 M, zinc 10^−6 M; for DNA level in bone tissues, diaphysis part / DNA level in bone tissues, metaphysis part: mean ± SD, 5 rats; for Change of DNA level in bone tissues compared to the control group (in words): diaphysis and metaphysis
Experimental: (§1) After degradation, solution amount was measured.
(§2) DNA level was determined as an index of cell count in bone tissues. […] After osmosis at 4° C. for 24 hours, the liquid mixture was centrifuged. The supernatant was taken as a sample and determined by a method of Ceriotti et al. (J. Biol. Chem., 241; 34-77, 1951). Namely, 1 ml of concentrated hydrochloric acid and 1 ml of 0.04% indole solution were added to 2 ml of the sample and then the resultant mixture was heated to 100° C. in boiling water. After quenching followed by an extraction with 4 ml of chloroform, the chloroform layer was taken to determine bone DNA level with a spectrophotometer (490 nm).

[3] = tested on: bone protein synthesis; settings: non-patent document 4; cited from earlier work
[4] = tested on: alkaline phosphatase in bone tissues (femur diaphysis and metaphysis); experiment: Alkaline phosphatase activity in bone tissues by oral administration; type: in vivo, rat; settings: rats, β-cryptoxanthin 5 μg/100 g body weight, zinc 0.1 mg/100 g body weight; for Change of alkaline phosphatase activity in diaphysis and metaphysis tissues (in words): oral 7 days; for Alkaline phosphatase activity in bone tissues, diaphysis part / Alkaline phosphatase activity in bone tissues, metaphysis part: oral once a day for 7 days
Experimental: (§3) The expression level of alkaline phosphatase, which is the most important enzyme for promoting bone calcification, was examined. […] The resultant liquid was centrifuged. The supernatant, as an enzyme solution, was determined by a method of Walter and Schutt (in Method of Enzymatic Analysis, Vol. 1-2, p. 856, Academic Press, New York, 1965). Namely, this method was carried out as follows: p-nitrophenylphosphoric acid was used as a substrate; 0.05 ml of the enzyme solution was added to 2 ml of diethanolamine buffer (pH 9.8). After the incubation at 37° C. for 30 minutes, 10 ml of 0.05 N NaOH was added to the mixture. The absorbance (405 nm) was determined with a spectrophotometer to examine bone alkaline phosphatase activity of a therapeutic agent for bones and of a compound known to be effective for bones.
(§4) 24 hours after the final administration, femur was extracted, and the change in calcium levels in diaphysis and metaphysis tissues was examined with the method of Example 1.
The change of alkaline phosphatase activity in diaphysis and metaphysis tissues which were extracted in the same manner as in Example 5 was examined with the method of Example 3.

[5] = tested on: femur diaphysis and metaphysis tissues; experiment: Calcium level in bone tissues by oral administration; type: in vivo, rat; settings: rats, β-cryptoxanthin 5 μg/100 g body weight, zinc 0.1 mg/100 g body weight; for Change of calcium level in diaphysis (in words) / Change of calcium level in metaphysis (in words): oral 7 days; for Calcium level in bone tissues, diaphysis part / Calcium level in bone tissues, metaphysis part: oral once a day for 7 days, femur 24 h after final administration
Experimental: as §1, §4

[6] = tested on: alkaline phosphatase in bone tissues (femur diaphysis and metaphysis); experiment: Alkaline phosphatase activity in bone tissues in a bone tissue culture system; type: cell-based, rat; settings: 48 h culture, β-cryptoxanthin 10^−9 M, zinc 10^−6 M; for Alkaline phosphatase activity in bone tissues, diaphysis part / Alkaline phosphatase activity in bone tissues, metaphysis part: mean ± SD, 5 rats; for Change of alkaline phosphatase activity in bone tissues compared to the control group (in words): diaphysis and metaphysis
Experimental: as §1
as §3, with “mixture.” for “mixture. The absorbance (405 nm) was determined with a spectrophotometer to examine bone alkaline phosphatase activity of a therapeutic agent for bones and of a compound known to be effective for bones.”

[7] = tested on: femur diaphysis and metaphysis tissues; experiment: DNA level in bone tissues by oral administration; type: in vivo, rat; settings: rats, β-cryptoxanthin 5 μg/100 g body weight, zinc 0.1 mg/100 g body weight; for Change of DNA level in diaphysis (in words) / Change of DNA level in metaphysis tissues (in words): oral 7 days; for DNA level in bone tissues, diaphysis part / DNA level in bone tissues, metaphysis part: oral once a day for 7 days
Experimental: as §2, §4
The change of DNA level in diaphysis and metaphysis tissues which were extracted in the same manner as in Example 5 was examined with the method of Example 4.

[8] = tested on: diaphysis and metaphysis tissues of a femur; settings: cited from earlier work
[9] = Example 2, zinc, genistein, menaquinone-7 each 10^−6 M

| SMILES | Change of calcium levels in bone tissues (in words) [1, 9] | Calcium level in bone tissues, diaphysis part [1, 9] | Calcium level in bone tissues, metaphysis part [1, 9] | Change of calcium level in bone tissues (in words) [1] | DNA level in bone tissues, diaphysis part [2] | DNA level in bone tissues, metaphysis part [2] | Change of DNA level in bone tissues compared to the control group (in words) [2] | Change of alkaline phosphatase activity in diaphysis and metaphysis tissues (in words) [4] | Alkaline phosphatase activity in bone tissues, diaphysis part [4] | Alkaline phosphatase activity in bone tissues, metaphysis part [4] | Change of calcium level in diaphysis (in words) [5] | Change of calcium level in metaphysis (in words) [5] | Calcium level in bone tissues, diaphysis part [5] | Calcium level in bone tissues, metaphysis part [5] | Alkaline phosphatase activity in bone tissues, diaphysis part [6] | Alkaline phosphatase activity in bone tissues, metaphysis part [6] | Change of alkaline phosphatase activity in bone tissues compared to the control group (in words) [6] | Change of DNA level in diaphysis (in words) [7] | Change of DNA level in metaphysis tissues (in words) [7] | DNA level in bone tissues, diaphysis part [7] | also measured |
| --- | --- | --- | --- | --- | --- | --- | --- | --- | --- | --- | --- | --- | --- | --- | --- | --- | --- | --- | --- | --- | --- |
| O=c1c(-c2ccc(O)cc2)coc2cc(O)cc(O)c12 [genistein, reference compound] | did not increase significantly | 211.0 ± 7.93 mg/g bone dry weight | 189.3 ± 6.40 mg/g bone dry weight | increasing significantly |  |  |  |  |  |  |  |  |  |  |  |  |  |  |  |  |  |
| CC(C)=CCC/C(C)=C/CC/C(C)=C/CC/C(C)=C/CC/C(C)=C/CC/C(C)=C/CC/C(C)=C/CC1=C(C)C(=O)c2ccccc2C1=O [menaquinone-7, reference compound] | did not increase significantly | 219.8 ± 4.20 mg/g bone dry weight | 184.9 ± 2.70 mg/g bone dry weight | increasing significantly |  |  |  |  |  |  |  |  |  |  |  |  |  |  |  |  |  |
| O=S(=O)([O-])[O-].[Zn+2] [zinc, zinc sulfate] | did not increase significantly | 224.3 ± 2.90 mg/g bone dry weight | 190.2 ± 2.53 mg/g bone dry weight |  | 1.471 ± 0.052 mg/g bone wet weight | 3.025 ± 0.271 mg/g bone wet weight | did not change significantly | did not induce a significant change | 1.725 ± 0.038 μmol/min/mg protein | 1.170 ± 0.033 μmol/min/mg protein | did not induce a significant change | did not induce a significant change | 227.9 ± 4.3 mg/g dry mass | 178.6 ± 4.0 mg/g dry mass | 1.019 ± 0.061 μmol/min/mg protein | 1.190 ± 0.079 μmol/min/mg protein | did not change significantly | did not induce a significant change | did not induce a significant change | 1.805 ± 0.154 mg/g bone wet weight | Concentration at which synthesis of bone protein is promoted [3]: ≥ 10^−4 M; DNA level in bone tissues, metaphysis part [7]: 3.278 ± 0.103 mg/g bone wet weight; Calcium level in bone tissues, diaphysis part ([1]; Example 1, zinc 10^−6 M): 215.5 ± 2.01 mg/g bone dry weight; Calcium level in bone tissues, metaphysis part ([1]; Example 1, zinc 10^−6 M): 185.6 ± 1.56 mg/g bone dry weight; Change of calcium levels in bone tissues compared to the control group (in words) ([1]; Example 1, zinc 10^−6 M): did not change significantly |
| CC1=C(/C=C/C(C)=C/C=C/C(C)=C/C=C/C=C(C)/C=C/C=C(C)/C=C/C2=C(C)C[C@@H](O)CC2(C)C)C(C)(C)CCC1 [β-cryptoxanthin] | did not increase significantly | 221.5 ± 3.45 mg/g bone dry weight | 189.5 ± 3.44 mg/g bone dry weight |  | 1.358 ± 0.089 mg/g bone wet weight | 3.141 ± 0.078 mg/g bone wet weight | did not change significantly | did not induce a significant change | 1.703 ± 0.056 μmol/min/mg protein | 1.159 ± 0.048 μmol/min/mg protein | did not induce a significant change | increased significantly | 233.6 ± 6.8 mg/g dry mass | 190.1 ± 3.4 mg/g dry mass | 1.010 ± 0.078 μmol/min/mg protein | 1.122 ± 0.078 μmol/min/mg protein | did not change significantly | did not induce a significant change | significant increase | 1.980 ± 0.251 mg/g bone wet weight | DNA level in bone tissues, metaphysis part [7]: 4.102 ± 0.055 mg/g bone wet weight; Effective concentration for promoting osteogenesis and increasing bone calcium level ([8]; 48-hour culture system of a bone tissue culture system, earlier report of the inventors): 10^−8-10^−6 M; Concentration at which osteogenesis is promoted and bone calcium increased ([8]; 48 h culture in a bone tissue culture system, patent document 10, non-patent document 2): 10^−1 to 10^−6; Calcium level, bone calcification accelerating enzyme and DNA level in bone tissues (in words) ([8]; femur diaphysis and metaphysis tissues cultured in medium containing β-cryptoxanthin, earlier report of the inventors): significant increase; Calcium level in bone tissues, diaphysis part ([1]; Example 1, zinc 10^−6 M): 221.5 ± 3.95 mg/g bone dry weight; Calcium level in bone tissues, metaphysis part ([1]; Example 1, zinc 10^−6 M): 189.5 ± 2.39 mg/g bone dry weight; Change of calcium levels in bone tissues compared to the control group (in words) ([1]; Example 1, zinc 10^−6 M): did not change significantly |
